Organism: Rattus norvegicus
Test: DrugMatrix - Regimen: Daily Repeat
Format: toxicity, organism-based, Sprague-Dawley
Parameters: regimen Daily Repeat, gender Male, age 6-8 weeks
Settings: in vivo, po, route oral GAVAGE, vehicle 100 % WATER; for ABSOLUTE BASOPHIL / ABSOLUTE EOSINOPHIL / ABSOLUTE LYMPHOCYTE / ABSOLUTE MONOCYTE / ABSOLUTE SEGMENTED NEUTROPHIL / BASOPHIL / EOSINOPHIL / ERYTHROCYTE COUNT / HEMATOCRIT / HEMOGLOBIN / LEUKOCYTE COUNT / LYMPHOCYTE / MEAN CORPUSCULAR HEMOGLOBIN / MEAN CORPUSCULAR HEMOGLOBIN CONCENTRATION / MEAN CORPUSCULAR VOLUME / MONOCYTE / NEUTROPHIL / NUCLEATED RED BLOOD CELLS / PLATELET COUNT: tissue Blood; for ALANINE AMINOTRANSFERASE / ALBUMIN / ALKALINE PHOSPHATASE / ASPARTATE AMINOTRANSFERASE / BLOOD UREA NITROGEN / CARBON DIOXIDE / CHLORIDE / CHOLESTEROL / CREATINE PHOSPHOKINASE / CREATININE / GLUCOSE / LACTATE DEHYDROGENASE / LIPASE / PHOSPHORUS / POTASSIUM / SODIUM / TOTAL BILIRUBIN / TOTAL PROTEIN / URIC ACID: tissue Plasma
[1] = 0 mg/kg, 72 h, dose level Control, time 3 day
[2] = 0 mg/kg, 120 h, dose level Control, time 5 day
[3] = 4.5 mg/kg, 72 h, dose level Low, time 3 day

Q: Which results are given for NN [HYDRAZINE]?
A: ABSOLUTE BASOPHIL [1]: 0 CELLS/uL; ABSOLUTE EOSINOPHIL [1]: 20.17 CELLS/uL; ABSOLUTE LYMPHOCYTE [1]: 12371.67 CELLS/uL; ABSOLUTE MONOCYTE [1]: 166 CELLS/uL; ABSOLUTE SEGMENTED NEUTROPHIL [1]: 1292.17 CELLS/uL; BASOPHIL [1]: 0%; EOSINOPHIL [1]: 0.17%; ERYTHROCYTE COUNT [1]: 5.46 x10E6/uL; HEMATOCRIT [1]: 34.38%; HEMOGLOBIN [1]: 13.32 G/DL; LEUKOCYTE COUNT [1]: 13.85 x10E3/uL; LYMPHOCYTE [1]: 88.5%; MEAN CORPUSCULAR HEMOGLOBIN [1]: 24.42 pg; MEAN CORPUSCULAR HEMOGLOBIN CONCENTRATION [1]: 38.7 G/DL; MEAN CORPUSCULAR VOLUME [1]: 63.07 fL; MONOCYTE [1]: 1.17%; NEUTROPHIL [1]: 10.17%; NUCLEATED RED BLOOD CELLS [1]: 0.17 /100WBC; PLATELET COUNT [1]: 1193.5 x10E3/uL; ALANINE AMINOTRANSFERASE [1]: 54.5 u/L; ALBUMIN [1]: 4.02 G/DL; ALKALINE PHOSPHATASE [1]: 346.5 u/L; ASPARTATE AMINOTRANSFERASE [1]: 103.17 u/L; BLOOD UREA NITROGEN [1]: 16.5 mg/dL; CARBON DIOXIDE [1]: 29.83 mmol/L; CHLORIDE [1]: 99.5 MEQ/L; CHOLESTEROL [1]: 72.5 mg/dL; CREATINE PHOSPHOKINASE [1]: 532.5 u/L; CREATININE [1]: 0.18 mg/dL; GLUCOSE [1]: 168.5 mg/dL; LACTATE DEHYDROGENASE [1]: 536.5 u/L; LIPASE [1]: 11.17 u/L; PHOSPHORUS [1]: 11.48 mg/dL; POTASSIUM [1]: 5.95 MEQ/L; SODIUM [1]: 140.5 MEQ/L; TOTAL BILIRUBIN [1]: 0.18 mg/dL; TOTAL PROTEIN [1]: 5.77 G/DL; URIC ACID [1]: 1.42 mg/dL; ABSOLUTE BASOPHIL [2]: 0 CELLS/uL; ABSOLUTE EOSINOPHIL [2]: 22.83 CELLS/uL; ABSOLUTE LYMPHOCYTE [2]: 12202.83 CELLS/uL; ABSOLUTE MONOCYTE [2]: 158 CELLS/uL; ABSOLUTE SEGMENTED NEUTROPHIL [2]: 1283 CELLS/uL; BASOPHIL [2]: 0%; EOSINOPHIL [2]: 0.17%; ERYTHROCYTE COUNT [2]: 5.88 x10E6/uL; HEMATOCRIT [2]: 36.62%; HEMOGLOBIN [2]: 14.07 G/DL; LEUKOCYTE COUNT [2]: 13.67 x10E3/uL; LYMPHOCYTE [2]: 89.5%; MEAN CORPUSCULAR HEMOGLOBIN [2]: 23.95 pg; MEAN CORPUSCULAR HEMOGLOBIN CONCENTRATION [2]: 38.43 G/DL; MEAN CORPUSCULAR VOLUME [2]: 62.28 fL; MONOCYTE [2]: 1.17%; NEUTROPHIL [2]: 9.17%; NUCLEATED RED BLOOD CELLS [2]: 0.17 /100WBC; PLATELET COUNT [2]: 1198 x10E3/uL; ALANINE AMINOTRANSFERASE [2]: 51 u/L; ALBUMIN [2]: 4.3 G/DL; ALKALINE PHOSPHATASE [2]: 343 u/L; ASPARTATE AMINOTRANSFERASE [2]: 89.83 u/L; BLOOD UREA NITROGEN [2]: 17.67 mg/dL; CARBON DIOXIDE [2]: 27.17 mmol/L; CHLORIDE [2]: 98.33 MEQ/L; CHOLESTEROL [2]: 82.5 mg/dL; CREATINE PHOSPHOKINASE [2]: 533.33 u/L; CREATININE [2]: 0.18 mg/dL; GLUCOSE [2]: 152.67 mg/dL; LACTATE DEHYDROGENASE [2]: 220.33 u/L; LIPASE [2]: 11.5 u/L; PHOSPHORUS [2]: 11.25 mg/dL; POTASSIUM [2]: 6.29 MEQ/L; SODIUM [2]: 140.53 MEQ/L; TOTAL BILIRUBIN [2]: 0.22 mg/dL; TOTAL PROTEIN [2]: 6.12 G/DL; URIC ACID [2]: 1.42 mg/dL; ABSOLUTE BASOPHIL [3]: 0 CELLS/uL; ABSOLUTE EOSINOPHIL [3]: 52 CELLS/uL; ABSOLUTE LYMPHOCYTE [3]: 11298 CELLS/uL; ABSOLUTE MONOCYTE [3]: 113 CELLS/uL; ABSOLUTE SEGMENTED NEUTROPHIL [3]: 1470.33 CELLS/uL; BASOPHIL [3]: 0%; EOSINOPHIL [3]: 0.33%; ERYTHROCYTE COUNT [3]: 5.57 x10E6/uL; HEMATOCRIT [3]: 35.73%; HEMOGLOBIN [3]: 13.97 G/DL; LEUKOCYTE COUNT [3]: 12.93 x10E3/uL; LYMPHOCYTE [3]: 87.33%; MEAN CORPUSCULAR HEMOGLOBIN [3]: 25.1 pg; MEAN CORPUSCULAR HEMOGLOBIN CONCENTRATION [3]: 39.1 G/DL; MEAN CORPUSCULAR VOLUME [3]: 64.2 fL; MONOCYTE [3]: 1%; NEUTROPHIL [3]: 11.33%; NUCLEATED RED BLOOD CELLS [3]: 0.33 /100WBC; PLATELET COUNT [3]: 1229.67 x10E3/uL; ALANINE AMINOTRANSFERASE [3]: 44.67 u/L; ALBUMIN [3]: 4.07 G/DL; ALKALINE PHOSPHATASE [3]: 421.33 u/L; ASPARTATE AMINOTRANSFERASE [3]: 89.67 u/L; BLOOD UREA NITROGEN [3]: 13.33 mg/dL; CARBON DIOXIDE [3]: 30.67 mmol/L; CHLORIDE [3]: 99 MEQ/L; CHOLESTEROL [3]: 73.67 mg/dL; CREATINE PHOSPHOKINASE [3]: 298.33 u/L; CREATININE [3]: 0.17 mg/dL; GLUCOSE [3]: 155 mg/dL; LACTATE DEHYDROGENASE [3]: 178.33 u/L; LIPASE [3]: 10.67 u/L; PHOSPHORUS [3]: 11.43 mg/dL; POTASSIUM [3]: 6.44 MEQ/L; SODIUM [3]: 142.33 MEQ/L; TOTAL BILIRUBIN [3]: 0.2 mg/dL; TOTAL PROTEIN [3]: 6.07 G/DL; URIC ACID [3]: 1.73 mg/dL

Source: ChEMBL document CHEMBL3885881, “DrugMatrix”
